Values of other authors in paper PMC8537277 (Pharmaceuticals, 2021).

Target: HA receptor-binding site (RBS)
Set-up: method as in PMID 29610325
Settings: ref [20]; cited from earlier work

Structure (SMILES): CC(=O)N[C@H]1[C@H]([C@H](O)[C@H](O)CO)OC(O)(C(=O)O)C[C@@H]1O (stereo partly shown) [sialic acid]
- KD: mM range
